Measurements taken from patent US20120149718A1, “Amido Compounds” (priority 2010, published 2012).

Molecular target: T1, human P2X7 (Homo sapiens, UniProt Q99572)
T1 construct: 1321N1 cells stably expressing the full length human P2X7 gene (1321N1-hP2X7)
T1 sequence (Q99572 1-595): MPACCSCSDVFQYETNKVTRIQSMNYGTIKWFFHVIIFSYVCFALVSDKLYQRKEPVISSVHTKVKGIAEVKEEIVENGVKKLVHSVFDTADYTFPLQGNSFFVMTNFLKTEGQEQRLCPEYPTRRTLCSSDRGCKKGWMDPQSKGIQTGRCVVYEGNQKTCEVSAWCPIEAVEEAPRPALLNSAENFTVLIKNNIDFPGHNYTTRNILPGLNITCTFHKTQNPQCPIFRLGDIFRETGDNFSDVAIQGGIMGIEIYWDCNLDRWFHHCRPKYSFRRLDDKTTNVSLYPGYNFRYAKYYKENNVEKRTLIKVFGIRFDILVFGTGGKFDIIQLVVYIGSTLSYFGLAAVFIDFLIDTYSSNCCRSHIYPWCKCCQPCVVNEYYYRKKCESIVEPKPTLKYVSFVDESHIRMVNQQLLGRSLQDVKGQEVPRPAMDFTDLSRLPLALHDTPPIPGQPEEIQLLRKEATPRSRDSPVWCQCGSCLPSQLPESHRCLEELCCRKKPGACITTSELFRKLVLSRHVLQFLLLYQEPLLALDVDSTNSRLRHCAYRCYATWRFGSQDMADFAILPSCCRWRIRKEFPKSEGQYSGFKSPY
Assay: Intracellular Calcium Flux (FLIPR) Assay
Type: cell-based
Conditions: 1321N1 cells stably expressing full length human P2X7; agonist 100 μM BzATP; fluo-3 calcium flux; read-out: FLIPR pIC50 hP2X7-1321n1 (converted)
Procedure: Stock solutions of compounds were prepared from powders as a 10 mM DMSO stock solution. These solutions were stored at RT during the two week period of these experiments to prevent freeze-thaw of the DMSO stocks. The DMSO stocks were added to the appropriate assay buffer at a concentration of 10 μM, and then diluted serially to the final concentrations that were tested. No observable precipitate was formed at any time during this process. The aqueous solutions of compounds as well as ATP (Sigma A7699) and BzATP (Sigma B6396) were prepared fresh for each day of experiment.
1321N1 cells stably expressing the full length human P2X7 gene (1321N1-hP2X7) and HEK293 cells stably expressing the full length rat P2X7 gene (HEK293-rP2X7) were obtained from the Roche Cell Culture Facility. 1321N1-hP2X7 cells were grown in Dulbecco's Modified Eagle's Medium (DMEM) high glucose supplemented with 10% FBS and 250 μg/mL G418. HEK293-rP2X7 cells were grown in DMEM/F-12 supplemented with 10% FBS, 1 mM CaCl2, 2 mM MgCl2, 2 mM L-Glutamine and 500 μg/ml G418. Cells were split such that they never became >70% confluent.
On the day prior to the experiment, 1321N1-hP2X7 or HEK293-rP2X7 cells were released into suspension with calcium-free PBS+Versene and washed by centrifugation with calcium-free PBS to remove the Versene. Cells were resuspended in growth medium at a density of 2.5×10^5 cells/mL and seeded into black walled, clear bottom 96 well plates (50,000 cells/well) approximately 18 hr prior to intracellular calcium flux experiments.
On the day of the experiment, plates were washed with FLIPR buffer (calcium- and magnesium-free Hank's Balanced Salt Solution (HBSS) supplemented with 10 mM Hepes, 2.5 mM probenecid and 2 mM calcium chloride) using a BIO-TEK 96 channel plate washer and incubated with […] fluo-3 dye at 37° C. for one hr. The dye was then removed by plate washing and the cells were allowed to equilibrate for 20 min at room temperature with antagonist or vehicle (FLIPR buffer). Agonist (100 μM BzATP final concentration for hP2X7; 5 μM BzATP final concentration or rP2X7) was added online with the FLIPR and fluorescence measurements made at 1 sec intervals for 60 sec followed by 3 sec intervals for a further 4 min (5 min total). A final addition of 5 μM ionomycin was made and the maximal BzATP-evoked fluorescence normalized to the maximal ionomycin-evoked fluorescence.

How did the IC50 turn out when CS(=O)(=O)c1ccc(C(Cc2ccc(F)cc2)C(=O)Nc2nc3cnccc3o2)cc1 (stereo not drawn) [Compound I-51, 3-(4-Fluoro-phenyl)-2-(4-methanesulfonyl-phenyl)-N-oxazolo[4,5-c]pyridin-2-yl-propionamide] was run?
The IC50 was 31.6 nM.

Which IC50 does the source give for CS(=O)(=O)c1ccc(C(Cc2ccc(F)cc2)C(=O)Nc2nc3cc(C(F)(F)F)ccc3o2)cc1 (stereo not drawn) [Compound I-41, 3-(4-Fluoro-phenyl)-2-(4-methanesulfonyl-phenyl)-N-(5-trifluoromethyl-benzooxazol-2-yl)-propionamide] here?
The IC50 was 115 nM.

With Cc1cccc2nc(NC(=O)C(Cc3ccc(F)cc3)c3ccc(S(C)(=O)=O)cc3)oc12 (stereo not drawn) [Compound I-42, 3-(4-Fluoro-phenyl)-2-(4-methanesulfonyl-phenyl)-N-(7-methyl-benzooxazol-2-yl)-propionamide] as the compound, how does the IC50 read?
Its IC50 is 28.8 nM.

For COc1ccc2oc(NC(=O)C(Cc3ccc(F)cc3)c3ccc(S(C)(=O)=O)cc3)nc2c1 (stereo not drawn) [Compound I-44, 3-(4-Fluoro-phenyl)-2-(4-methanesulfonyl-phenyl)-N-(5-methoxy-benzooxazol-2-yl)-propionamide], which IC50 is on record?
The IC50 was 75.9 nM.

For CS(=O)(=O)c1ccc(CC(C(=O)Nc2nc3ccccc3o2)c2ccc(F)cc2)cc1 (stereo not drawn) [Compound I-53, N-Benzooxazol-2-yl-2-(4-fluoro-phenyl)-3-(4-methanesulfonyl-phenyl)-propionamide], which IC50 is on record?
The IC50 was 407 nM.

Which IC50 does the source give for CS(=O)(=O)c1ccc(C(Cc2ccc(F)cc2)C(=O)Nc2cnc(CO)cn2)cc1 (stereo not drawn) [Compound I-16, 3-(4-Fluoro-phenyl)-N-(5-hydroxymethyl-pyrazin-2-yl)-2-(4-methanesulfonyl-phenyl)-propionamide] here?
The IC50 was 117 nM.

For Cc1ccc2oc(NC(=O)C(Cc3ccc(F)cc3)c3ccc(S(C)(=O)=O)cc3)nc2c1 (stereo not drawn) [Compound I-37, 3-(4-Fluoro-phenyl)-2-(4-methanesulfonyl-phenyl)-N-(5-methyl-benzooxazol-2-yl)-propionamide], which IC50 is on record?
Its IC50 is 166 nM.

Which IC50 does the source give for CS(=O)(=O)c1ccc(C(Cc2ccc(F)cc2)C(=O)Nc2cnc(Br)cn2)cc1 (stereo not drawn) [Compound I-13, N-(5-Bromo-pyrazin-2-yl)-3-(4-fluoro-phenyl)-2-(4-methanesulfonyl-phenyl)-propionamide] here?
Its IC50 is 813 nM.

Which IC50 does the source give for CS(=O)(=O)c1ccc(C(Cc2ccc(F)cc2)C(=O)Nc2nc3ccc(F)cc3o2)cc1 (stereo not drawn) [Compound I-40, N-(6-Fluoro-benzooxazol-2-yl)-3-(4-fluoro-phenyl)-2-(4-methanesulfonyl-phenyl)-propionamide] here?
Its IC50 is 38.9 nM.

With CC(C)(O)c1cnc(NC(=O)C(Cc2ccc(F)cc2)c2ccc(S(C)(=O)=O)cc2)cn1 (stereo not drawn) [Compound I-17, 3-(4-Fluoro-phenyl)-N-[5-(1-hydroxy-1-methyl-ethyl)-pyrazin-2-yl]-2-(4-methanesulfonyl-phenyl)-propionamide] as the compound, how does the IC50 read?
Its IC50 is 1070 nM.

CS(=O)(=O)c1ccc(C(Cc2ccncc2)C(=O)Nc2nc3ccccc3o2)cc1 (stereo not drawn) [Compound I-55, N-Benzooxazol-2-yl-2-(4-methanesulfonyl-phenyl)-3-pyridin-4-yl-propionamide] was tested. Which IC50 did it give?
The IC50 was 661 nM.

How did the IC50 turn out when CS(=O)(=O)c1ccc([C@H](Cc2ccc(F)cc2)C(=O)Nc2cnc(CO)cn2)cc1 [Compound I-50b, (S)-3-(4-Fluoro-phenyl)-N-(5-hydroxymethyl-pyrazin-2-yl)-2-(4-methanesulfonyl-phenyl)-propionamide] was run?
The IC50 was greater than 10000 nM.

Cc1cc(S(C)(=O)=O)ccc1C(Cc1ccc(F)cc1)C(=O)Nc1nc2ccccc2o1 (stereo not drawn) [Compound I-27, N-Benzooxazol-2-yl-3-(4-fluoro-phenyl)-2-(4-methanesulfonyl-2-methyl-phenyl)-propionamide] was tested. Which IC50 did it give?
The IC50 was 204 nM.

With Cc1cccc2oc(NC(=O)C(Cc3ccc(F)cc3)c3ccc(S(C)(=O)=O)cc3)nc12 (stereo not drawn) [Compound I-35, 3-(4-Fluoro-phenyl)-2-(4-methanesulfonyl-phenyl)-N-(4-methyl-benzooxazol-2-yl)-propionamide] as the compound, how does the IC50 read?
The IC50 was 468 nM.

Cc1cc(C)c2oc(NC(=O)C(Cc3ccc(F)cc3)c3ccc(S(C)(=O)=O)cc3)nc2c1 (stereo not drawn) [Compound I-43, N-(5,7-Dimethyl-benzooxazol-2-yl)-3-(4-fluoro-phenyl)-2-(4-methanesulfonyl-phenyl)-propionamide] was tested. Which IC50 did it give?
Its IC50 is 102 nM.
